Measurements reported in article PMC5413018, “Neuropeptide S (NPS) variants modify the signaling and risk effects of NPS Receptor 1 (NPSR1) variants in asthma” (PLoS ONE, 2017).

What was measured:
NPSR1-Ile(107) [1] = details: cell models; cited from earlier work
Text: The functional NPSR1 SNP rs324981 (A>T), encoding a substitution of Asn(107)Ile in the putative ligand-binding pocket of NPSR1 [5], has shown associations with neuropsychiatric phenotypes, such as panic disorders, psychological stress, and fear responses. […] In cell models, the change of Asn(107) to Ile(107) results in 10-fold increase in NPS-mediated intracellular sign ... || A key strength of this study is the use of robust in vitro cell assays that allowed us to dissect the functional effects of coding NPS/NPSR1 variants on receptor signaling and downstream gene expression. Our cell assays confirmed that stimulation of cells transfected with either NPSR1-Asn(107) or NPSR-Ile(107) with the wildtype NPS-Val(6), induced CRE activity as described previously.

NPSR1-Ile(107) [2] = molecular target: T1, NPSR1-Ile(107) (Homo sapiens, UniProt Q6W5P4, N107I); experiment: Real-time RT-PCR of downstream target genes in SH-SY5Y cells stably overexpressing NPSR1-Ile(107); type: cell-based; set-up: expressed in transfected cells; details: SH-SY5Y over-expressing NPSR1-Ile(107), 0.0001–1 μM, 3 h, dose dependent
T1 sequence (Q6W5P4 1-371 N107I): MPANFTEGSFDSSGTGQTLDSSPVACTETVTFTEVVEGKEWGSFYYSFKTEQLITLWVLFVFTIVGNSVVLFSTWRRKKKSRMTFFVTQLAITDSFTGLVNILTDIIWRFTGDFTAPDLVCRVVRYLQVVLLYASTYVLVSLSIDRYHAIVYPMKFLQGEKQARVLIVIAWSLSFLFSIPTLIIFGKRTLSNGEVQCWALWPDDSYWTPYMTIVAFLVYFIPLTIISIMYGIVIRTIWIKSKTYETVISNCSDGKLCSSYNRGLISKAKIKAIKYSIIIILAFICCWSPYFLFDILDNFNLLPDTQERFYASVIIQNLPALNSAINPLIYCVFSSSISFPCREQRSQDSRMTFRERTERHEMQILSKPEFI
Protocol: Fig 2 Real time RT-PCR analysis of NPSR1 downstream target genes. (A) Time-dependent mRNA expression of NR4A1, FOS, CXCL2, and CCL20 in human embryonic kidney epithelial (HEK293) cells transiently transfected with either NPSR1-Ile(107) or NPSR1-Asn(107) coding variants and stimulated with either NPS-Val(6) or NPS-Leu(6) NPS (100 nM) for 1, 3, 6, and 24 h. (B) Dose-response curves of NR4A1, FOS, IER3, and EGR1 in human SH-SY5Y stable cell line over-expressing NPSR1-Ile(107) stimulated with either NPS-Leu(6) or NPS V6 (0.0001–1 μM) for 3 h. The results are presented as fold-changes in comparison to the unstimulated cells. GAPDH was used as the endogenous reference, and data are expressed as mean of triplicate samples. […] In all experiments, results were calculated with the comparative Ct method.
Altered neuroinflammatory mechanisms have been implicated in allergic airway inflammation. […] SH-SY5Y cells stably overexpressing NPSR1-Ile(107) were stimulated with either NPS-Leu(6) or NPS-Val(6) (0.0001–1 μM) for 3 h and the mRNA expression of known downstream target genes in these cells was detected using RT-PCR. […] These observations validated the results detected in HEK293 cells in an independent cell line.
The stable NPSR1-A-GFP expressing SH-SY5Y cells were engineered and cultured as described before. […] The changes in gene expression were analyzed with real-time PCR (RT-PCR). […]

mRNA expression of NR4A1, FOS, EGR1 and IER3 (in words) (NPSR1-Ile(107) [2]): increased
Substance: Neuropeptide S (SFRNGVGTGMKKTSFQRAKS; Neuropeptide S; UniProt P0C0P6 70-89, looked up) [NPS, Neuropeptide S, variant not specified at the place]
increase in NPS-mediated intracellular signaling on change of Asn(107) to Ile(107) (NPSR1-Ile(107) [1]): 10 fold
